The numbers were not newly measured in US5939423A, “Treatment of hepatitis B infection with thymosin alpha 1 and famciclovir” (priority 1997, dated 1999), which cites them from elsewhere.

Series [1] concerns HBV. The note with it: preliminary data; up to 500 mg three times a day for 16 weeks.
The conditions of series [2]: single and repeat doses up to 1000 mg three times daily for six days.
Series [3] deals with HBV. The note with it: in vivo.
For series [4] the following is noted: more than 3000 patients.
Test in series [5]: not given
This is another data set of the same source.

For series [6], the system named is HBV. The note with it: 10 day course, 250 mg or 500 mg tid.
Series [7] concerns HBV. Particulars: named patients.
The subject of a further series is duck hepatitis B virus. The note with it: for maintenance of suppression of HBV DNA and DNA polymerase during treatment: 21 days of treatment; for maintenance of suppression of HBV DNA and DNA polymerase during treatment / DNA polymerase level / HBV DNA level: oral twice a day, penciclovir 20 and 100 mg/kg, famciclovir 5 and 25 mg/kg; for inhibition of duck hepatitis B viral replication: Peking duck; for HBV DNA and DNA polymerase levels after the post-dosing suppression: later than two days after dosing had stopped; for DNA polymerase level / HBV DNA level: within two days of start.

For series [8], the system named is HBV.
The test system of series [9] is HBV. The source holds these as a separate data set.
In the next series the test system is T4 (helper/inducer)cells. The note with it: by activation of the T4 (helper/inducer) cells.
The conditions of series [10]: in vivo.
Series [11] deals with HBV. The note with it: 1.45 to 1.75 mg (adults) per twice-weekly injection.
In another series the test system is anti-HBs. The note with it: previously non-reactive hemodialysis patients.
In series [12] the test system is woodchuck hepatitis virus (WHV).
The next series relates to HBV infection. Particulars: treatment of HBV infection.
Series [13] relates to HBV. The source holds these as a separate data set.
Series [14] deals with HBV. The source holds these as a separate data set.
Where [15] appears, read: 12 patients received TF5 or Tα1, p<0.004 vs placebo, Fisher's exact test.
Setting [16] is: during the 1 yr study or post study follow up, p<0.11 vs placebo.
The mark [17] stands for this setting: n = 49, 1.6 mg s.c. 2×/week, 6 months, p value 0.084 vs placebo.
Where [18] appears, read: n = 49, 1.6 mg s.c. 2×/week, 6 months, p value ns.

Ends that are not written are not given here.

On to `CC(=O)OCC(CCn1cnc2cnc(N)nc21)COC(C)=O` [famciclovir, diacetylester of 6-deoxy penciclovir], for which the “reduction in HBV DNA and ALT levels” value with HBV [1] is “significant reduction”. In addition, under “removal of one ester group”, the conversion to penciclovir result is on record as “partly in the intestinal wall”. The “completion of conversion to penciclovir” value (removal of remaining ester group, oxidation at the 6-position) is “completed in the liver”. Further, the “drug-related adverse effects on clinical laboratory values, blood pressure, heart rates or ECG measurements” value in series [2] was “no evidence of drug-related adverse effects”. Besides, in the series on HBV [3], the safety profile result is given as “good safety profile” and the “suppressing HBV replication” value is listed as “effective in suppressing HBV replication”. Moreover, the “most common adverse experiences” value in series [4] is “headache, nausea and diarrhea”. Further, in series [5] (oral, volunteers), the absorption result is “well absorbed”. In the series with HBV [6] (in 6 of 11 evaluable patients), the “fall in HBV DNA levels” value is given as “greater than 90%”. In addition, in the series with HBV [6] (of 11 evaluable patients), the “evaluable patients with greater than 90% fall in HBV DNA levels” value is 6. Also, the “efficacy in patients with HBV reinfection following liver transplantation” value in the series with HBV [7] is on record as “shown efficacy”. In the series with duck hepatitis B virus, the “maintenance of suppression of HBV DNA and DNA polymerase during treatment” value is “maintained this suppression during the 21 days”; the “inhibition of duck hepatitis B viral replication” value is listed as “clearly inhibit”; the “suppression of viral replication after dosing had stopped” value is on record as “remained suppressed for at least two days”; the “HBV DNA and DNA polymerase levels after the post-dosing suppression” value is “returned to pre-treatment levels”. In the series with duck hepatitis B virus, the DNA polymerase level entry is “undetectable” and the “HBV DNA level” value is “undetectable”.

`Nc1ccn([C@@H]2CS[C@H](CO)O2)c(=O)n1` [lamivudine]: in the series with HBV [3], the safety profile entry is given as “good safety profile” and the “suppressing HBV replication” value is given as “effective in suppressing HBV replication”.

Regarding `Nc1nc2c(ncn2CCC(CO)CO)c(=O)[nH]1` [penciclovir], in the series with HBV [8] (1 microgram/ml, by 6 day), the “reduction in HBV DNA by 6 day” value is reported as 50%. The “reduction in HBV DNA by day 9” value in the series on HBV [8] (1 microgram/ml, by day 9) is listed as 90%. Also, in the series with HBV [8] (2.2.15 hepatoma cells), the “concentration dependence of HBV DNA reduction” value was “concentration dependent” and the “inhibition of HBV in human cells” value was “potent inhibitor”. In addition, the “efficacy against herpes simplex virus” value in the series on herpes simplex was “proven efficacy”. In addition, the “Cmax (penciclovir)” value in series [5] (oral penciclovir alone, 5 mg/kg dose) is on record as “approximately 0.14 microgram/ml”. For the same compound, in the series with duck hepatitis B virus, the “maintenance of suppression of HBV DNA and DNA polymerase during treatment” value is on record as “maintained this suppression during the 21 days”; the “inhibition of duck hepatitis B viral replication” value is listed as “clearly inhibit”; the “suppression of viral replication after dosing had stopped” value is listed as “remained suppressed for at least two days”; the “HBV DNA and DNA polymerase levels after the post-dosing suppression” value is “returned to pre-treatment levels”. For the same compound, in the series on duck hepatitis B virus, the DNA polymerase level entry is listed as “undetectable” and the “HBV DNA level” value is “undetectable”. Also, the “efficacy against zoster virus” value with zoster is “proven efficacy”.

As for “Tα1: 28 amino acid peptide with a molecular weight of 3108, initially isolated from Thymus Fraction 5, sequenced and chemically synthesized (SDAAVDTSSEITTKDLKEKKEVVEEAEN; ends and bridges not checked; UniProt P06454 2-29, looked up)”, in the series with HBV [9] (setting [15]), the “number of patients who cleared serum HBV DNA” value is recorded as “Nine” and the “patients who cleared serum HBV DNA” value is 75%. Besides, in the series with HBV [9] (associated with response, over initial values), the “peripheral blood lymphocyte, CD3 and CD4 counts, and in vitro production of interferon-gamma” value was “significant improvements”. Also, the “responders with sustained remission with normal ALT levels and negative serum HBV DNA (using PCR) and HBeAg” value in the series with HBV [9] (of the responders) is listed as “About 78%”. Moreover, the side effects entry in the series on HBV [9] (twice weekly for six months) is “No side effects were observed”. The serum aminotransferase levels entry in the series on HBV [9] (twice weekly for six months, conclusion of the study (1 year)) is on record as “improved significantly”. Further, in the series on T4 (helper/inducer)cells, the “allogenic and autologous human mixed lymphocyte reactions” value is listed as “enhances”. Moreover, in [10], the “local or systemic side effects” value is “no local or systemic side effects have been observed”. Further, in the series with T cells, the “modulating the maturation of T cells” value was “activity similar to TF5”. For the same compound, in the series with HBV [11], the “safety and effectiveness in clearing HBV DNA from the blood” value is “safe and effective”. Also, the “in vivo production of anti-HBs following Heptavax-B vaccination” value in the series with anti-HBs was “enhance”. Also, in series [12] (liver biopsy, the other 2 animals, end of treatment), the “change of WHV DNA replication intermediates from pretreatment levels” value was “only a small change”. The “treated animals with undetectable WHV DNA levels” value in series [12] (of 6 animals, 10 μg/Kg s.c. twice weekly, 28 weeks) is reported as 4. Moreover, in series [12] (remaining 2 animals, 10 μg/Kg s.c. twice weekly, 28 weeks), the “depression of WHV DNA levels” value is reported as 100 fold. Further, in the series on HBV infection, the immune responsiveness result is reported as “enhances immune responsiveness” and the specific lymphocyte parameters result is “augments specific lymphocyte parameters to significantly higher levels”. Moreover, the “lymphocyte IL2 receptor expression” value with normal human lymphocytes is listed as “increase”. For the same compound, in the series with normal human lymphocytes (normal human lymphocytes), the “interferon-alpha, interferon-gamma, and IL2 and IL3 production” value was “promote”. Besides, in the series on HBV [13] (setting [16]), the “sustained loss of HBV DNA with negative HBeAg” value was 25% and the “sustained loss of HBV DNA with negative HBeAg, number of patients” value was 12. In addition, in the series with HBV [13] (setting [17]), the “CR (%) (complete response)” value is given as 14% and the “CR (complete response), number of patients” value is reported as 7. Also, in the series with HBV [13] (setting [18]), the “DR (%) (delayed response)” value was 10%; the “DR (delayed response), number of patients” value is 5; the “IR (%) (incomplete response)” value is given as 0%; the “IR (incomplete response), number of patients” value is reported as 0.

On to interferon-alpha, for which the “clear HBeAg” value with HBV [14] (Asian patients) is recorded as 15-20%. The “sustained clearance of hepatitis B e antigen (HBeAg)” value with HBV [14] (North America and European patients) is recorded as 30-40%. Also, in the series with HBV [14] (of the Asian patients who clear HBeAg), the “clear HBsAg” value is recorded as “approximately 10%”. The “ultimately cleared hepatitis B surface antigen (HBsAg)” value with HBV [14] (of the North America and European patients with HBeAg clearance) was 25-65%.
